Source: patent US9676782B2, “Substituted pyrazolo[1,5-a]pyrazines as negative allosteric modulators of metabotropic glutamate receptor 3” (Vanderbilt University, priority 2014, dated 2017)
Where two headings read alike, the source gives them in different places.

Columns and labels:
rat mGlu3 = rat mGlu3 (Rattus norvegicus (Rat), UniProt P31422); experiment: mGlu3 Ca2+ flux assay; assay type: cell-based; settings: for remaining activity at 30 µM: amplitude of response at 30 μM test compound as % of maximal response to glutamate, read-out: rat mGlu3 Glu max (%); for IC50: read-out: rat mGlu3 IC50
Outline: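 Cells expressing rat mGlu3 were grown overnight at 37° C. under 5% CO2, then loaded with dye. After dye removal they received 20 μL of assay buffer and sat 10 minutes at room temperature. Calcium flux was read on a Hamamatsu FDSS7000, and fluorescence was expressed as fold over basal and normalized to the maximal glutamate response.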

rat mGlu5 = rat mGlu5 (Rattus norvegicus (Rat), UniProt P31424); experiment: mGlu5 Ca2+ flux assay; assay type: cell-based; settings: for Fold selectivity (mGlu3 vs. mGlu5): ratio of rat mGlu5 EC50 or IC50 to rat mGlu3 IC50; for EC50: read-out: rat mGlu5 EC50 or IC50
Outline: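 Transfected cells grown overnight at 37° C/5% CO2, dye-loaded, then 5 min in assay buffer at RT before Ca2+ flux read on FDSS7000. Fluorescence as F/F0 fold over basal, normalized to maximal glutamate response; EC50 from unconstrained 4-parameter logistic fit, triplicates weighted evenly.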

mGlu8 = experiment: mGlu selectivity assay: effect of a single concentration on the glutamate concentration-response curve; assay type: cell-based; settings: tested at 10 μM
From the text: (§1) Selectivity versus other mGlus can also be assessed by evaluating the effect of a single concentration of compound on the glutamate concentration-response curve (CRC) in cell lines expressing the mGlu of interest.

mGlu7 = experiment: as above; assay type: cell-based; settings: tested at 10 μM
From the text: as §1

mGlu1 = experiment: as above; assay type: cell-based; settings: tested at 10 μM
From the text: as §1

mGlu4 = experiment: as above; assay type: cell-based; settings: tested at 10 μM
From the text: as §1

mGlu6 = mGlu6 (Homo sapiens (Human), UniProt O15303); experiment: as above; assay type: cell-based; settings: tested at 10 μM
From the text: as §1

mGlu2 = experiment: as above; assay type: cell-based; settings: tested at 10 μM
From the text: as §1

cultured astrocytes = settings: cited from earlier work
[1] = system: Aβ-induced neurodegeneration; settings: cited from earlier work
schizophrenic patients = settings: compared to placebo, P<0.001 at week 4; cited from earlier work

Chain of rat mGlu3 (P31422 23-879): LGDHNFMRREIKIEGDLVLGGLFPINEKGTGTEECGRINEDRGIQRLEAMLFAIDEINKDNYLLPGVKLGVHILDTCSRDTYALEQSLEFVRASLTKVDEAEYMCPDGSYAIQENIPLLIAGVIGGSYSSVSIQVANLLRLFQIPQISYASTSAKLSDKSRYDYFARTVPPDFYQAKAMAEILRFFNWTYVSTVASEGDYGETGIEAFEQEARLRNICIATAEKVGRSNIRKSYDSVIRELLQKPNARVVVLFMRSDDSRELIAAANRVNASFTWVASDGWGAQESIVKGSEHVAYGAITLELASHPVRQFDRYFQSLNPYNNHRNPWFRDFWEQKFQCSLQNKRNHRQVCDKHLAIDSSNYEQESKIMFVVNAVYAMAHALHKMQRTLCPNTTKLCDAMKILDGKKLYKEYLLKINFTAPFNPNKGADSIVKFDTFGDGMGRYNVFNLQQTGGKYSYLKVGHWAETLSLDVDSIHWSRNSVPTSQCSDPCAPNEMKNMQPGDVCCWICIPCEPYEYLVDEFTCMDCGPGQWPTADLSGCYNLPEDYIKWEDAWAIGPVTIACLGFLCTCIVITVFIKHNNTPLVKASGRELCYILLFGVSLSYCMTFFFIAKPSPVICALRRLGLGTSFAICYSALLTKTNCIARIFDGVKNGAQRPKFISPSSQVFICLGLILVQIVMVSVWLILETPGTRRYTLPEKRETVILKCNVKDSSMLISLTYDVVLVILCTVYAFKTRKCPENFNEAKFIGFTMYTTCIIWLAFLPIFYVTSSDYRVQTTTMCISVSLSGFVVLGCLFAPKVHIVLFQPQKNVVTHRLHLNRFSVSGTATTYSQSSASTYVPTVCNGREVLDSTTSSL
Chain of rat mGlu5 (P31424 21-1203): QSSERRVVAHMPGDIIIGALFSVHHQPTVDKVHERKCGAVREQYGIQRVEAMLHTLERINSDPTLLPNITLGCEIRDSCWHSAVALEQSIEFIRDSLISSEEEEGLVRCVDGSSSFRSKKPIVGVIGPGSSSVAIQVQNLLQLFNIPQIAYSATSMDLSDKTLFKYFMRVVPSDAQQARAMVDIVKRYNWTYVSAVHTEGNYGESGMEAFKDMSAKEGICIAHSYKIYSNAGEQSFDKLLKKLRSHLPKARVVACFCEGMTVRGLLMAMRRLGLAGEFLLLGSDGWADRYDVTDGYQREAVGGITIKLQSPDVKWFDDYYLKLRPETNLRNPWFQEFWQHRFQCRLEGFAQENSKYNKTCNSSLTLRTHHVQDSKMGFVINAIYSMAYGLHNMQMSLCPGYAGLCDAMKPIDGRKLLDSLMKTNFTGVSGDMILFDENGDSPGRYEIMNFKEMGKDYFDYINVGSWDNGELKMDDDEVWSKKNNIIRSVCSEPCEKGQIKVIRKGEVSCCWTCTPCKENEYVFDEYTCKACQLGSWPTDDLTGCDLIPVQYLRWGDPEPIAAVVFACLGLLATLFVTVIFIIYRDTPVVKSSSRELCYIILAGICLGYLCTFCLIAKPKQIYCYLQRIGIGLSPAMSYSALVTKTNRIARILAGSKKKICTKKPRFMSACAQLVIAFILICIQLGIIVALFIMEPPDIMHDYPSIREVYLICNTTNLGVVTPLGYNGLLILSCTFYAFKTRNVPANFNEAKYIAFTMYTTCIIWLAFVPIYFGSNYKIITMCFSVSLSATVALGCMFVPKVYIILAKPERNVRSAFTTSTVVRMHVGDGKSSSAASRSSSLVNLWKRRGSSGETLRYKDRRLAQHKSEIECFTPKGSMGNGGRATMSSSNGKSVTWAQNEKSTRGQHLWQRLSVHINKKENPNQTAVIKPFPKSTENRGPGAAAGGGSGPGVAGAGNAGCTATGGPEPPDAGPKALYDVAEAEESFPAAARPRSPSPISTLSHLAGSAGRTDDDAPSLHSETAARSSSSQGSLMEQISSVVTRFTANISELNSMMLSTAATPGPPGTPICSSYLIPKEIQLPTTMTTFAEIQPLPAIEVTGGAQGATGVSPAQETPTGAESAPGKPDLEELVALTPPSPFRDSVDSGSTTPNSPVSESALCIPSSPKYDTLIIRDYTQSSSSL
Chain of mGlu6 (O15303 25-877): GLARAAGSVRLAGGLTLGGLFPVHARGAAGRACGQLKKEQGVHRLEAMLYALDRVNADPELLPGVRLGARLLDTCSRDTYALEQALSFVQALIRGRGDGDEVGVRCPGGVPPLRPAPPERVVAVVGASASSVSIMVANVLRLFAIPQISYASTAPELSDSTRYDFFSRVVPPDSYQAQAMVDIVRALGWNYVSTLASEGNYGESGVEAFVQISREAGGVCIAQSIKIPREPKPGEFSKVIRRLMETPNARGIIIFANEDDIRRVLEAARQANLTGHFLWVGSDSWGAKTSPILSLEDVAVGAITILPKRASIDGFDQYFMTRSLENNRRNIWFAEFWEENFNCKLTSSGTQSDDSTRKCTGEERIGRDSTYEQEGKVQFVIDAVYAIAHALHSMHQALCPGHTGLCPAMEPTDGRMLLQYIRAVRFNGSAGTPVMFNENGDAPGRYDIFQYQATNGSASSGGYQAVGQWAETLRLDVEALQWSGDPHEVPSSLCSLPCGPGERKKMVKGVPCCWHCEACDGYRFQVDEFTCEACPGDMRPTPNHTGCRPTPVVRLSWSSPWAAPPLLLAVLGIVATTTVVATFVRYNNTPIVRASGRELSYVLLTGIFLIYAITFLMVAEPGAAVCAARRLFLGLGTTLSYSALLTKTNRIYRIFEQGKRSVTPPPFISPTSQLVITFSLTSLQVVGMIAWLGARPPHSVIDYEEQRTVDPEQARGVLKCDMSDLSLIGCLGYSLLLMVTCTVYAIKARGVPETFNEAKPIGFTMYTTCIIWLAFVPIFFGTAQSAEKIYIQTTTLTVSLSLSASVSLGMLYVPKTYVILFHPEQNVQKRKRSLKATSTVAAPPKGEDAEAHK

Row | SMILES | remaining activity at 30 µM (rat mGlu3) [%] | IC50 (rat mGlu3) [nM] | Fold selectivity (mGlu3 vs. mGlu5) (rat mGlu5) | EC50 (rat mGlu5) [nM] | activity against mGlu8 (mGlu8) | activity against mGlu7 (mGlu7) | activity against mGlu1 (mGlu1) | activity against mGlu4 (mGlu4) | activity against mGlu6 (mGlu6) | activity against mGlu2 (mGlu2) | IC50 (rat mGlu3; NAM potency, decrease of glutamate EC80 response, >30,000 = no measurable activity, >10,000 = no plateau) [nM] | sAPPα release (cultured astrocytes) | effect on Aβ-induced neurodegeneration [1] | positive and negative symptoms of schizophrenia (schizophrenic patients)
1 | N#CCc1ccc(NCc2cc3n(n2)CCN(c2ccc(F)cc2)C3=O)cc1 [Compound 26, 2-(4-(((5-(4-fluorophenyl)-4-oxo-4,5,6,7-tetrahydropyrazolo[1,5-a]pyrazin-2-yl)methyl)amino)phenyl)acetonitrile] | 1.01 | 890 | >33 | > 30000 | inactive | inactive | inactive | inactive | inactive | inactive |  |  |  | 
2 | COc1ccc(N(C)Cc2cc3n(n2)CCN(c2ccc(F)cc2)C3=O)cc1 [Compound 92, 5-(4-fluorophenyl)-2-(((4-methoxyphenyl)(methyl)amino)methyl)-6,7-dihydropyrazolo[1,5-a]pyrazin-4(5H)-one] | 1.39 |  | >30 | > 30000 | inactive | inactive | inactive | inactive | inactive | inactive | 986 |  |  | 
3 | N[C@@]1(C(=O)O)CO[C@H]2[C@H](C(=O)O)[C@H]21 [LY379268] |  |  |  |  |  |  |  |  |  |  |  | incremented sAPPα release | neuroprotective activity | 
4 | N[C@@]1(C(=O)O)CS(=O)(=O)[C@H]2[C@H](C(=O)O)[C@H]21 [LY404039] |  |  |  |  |  |  |  |  |  |  |  |  |  | statistically significant improvements in both positive and negative symptoms
